Data published in PubChem BioAssay AID1159588 (Gregory J. Crowther, 2016).

Target: Calcium-dependent protein kinase 4 (Plasmodium falciparum (isolate 3D7)) (UniProt Q8IBS5)
Assay: PfCDPK4 kinase inhibitors, biochemical, TCAMS library (AID 1159588)
Settings: recombinant PfCDPK4, Kinase-Glo ATP depletion luminescence; cut-off not given, nearly all actives have IC50 up to about 0.91 µM

Sequence of Calcium-dependent protein kinase 4 (Plasmodium falciparum (isolate 3D7)) (Q8IBS5 whole entry, looked up): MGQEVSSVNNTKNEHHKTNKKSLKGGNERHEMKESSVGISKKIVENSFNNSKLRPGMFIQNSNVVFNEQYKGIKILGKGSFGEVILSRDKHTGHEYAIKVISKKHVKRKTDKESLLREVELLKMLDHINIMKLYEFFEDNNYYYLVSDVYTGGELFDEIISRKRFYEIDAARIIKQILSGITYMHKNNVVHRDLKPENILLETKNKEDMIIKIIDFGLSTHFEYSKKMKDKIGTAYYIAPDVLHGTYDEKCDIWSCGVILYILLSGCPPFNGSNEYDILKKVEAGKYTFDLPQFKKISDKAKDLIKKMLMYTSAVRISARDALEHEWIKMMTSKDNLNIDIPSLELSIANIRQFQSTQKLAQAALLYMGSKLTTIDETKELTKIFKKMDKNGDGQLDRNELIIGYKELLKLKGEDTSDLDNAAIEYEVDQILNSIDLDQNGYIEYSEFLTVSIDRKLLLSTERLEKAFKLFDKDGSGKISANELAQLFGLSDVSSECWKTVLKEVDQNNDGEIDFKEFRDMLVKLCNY

IC50, active:
O=C(Nc1cccc(-c2nn3ccccc3c2-c2ccnc(Nc3ccc(NCCCN4CCOCC4)c(F)c3)n2)c1)c1c(F)cccc1F 315 nM
O=C(Nc1cccc(-c2nn3ccccc3c2-c2ccnc(Nc3cccc(-c4cnco4)c3)n2)c1)C1CCCCC1 612 nM
O=C(Nc1c(F)cccc1F)c1cccc(-c2nn3ccccc3c2-c2ccnc(Nc3cccc(-c4cnco4)c3)n2)c1 134 nM
Cc1cccc(Nc2nc(NCCCCN)nc3cc[nH]c(=O)c23)c1 166 nM
COc1cc(Nc2nccc(-c3c(-c4cccc(NC(=O)c5c(F)cccc5F)c4)nn4ncccc34)n2)cc(OC)c1OC 45 nM
CN1CCN(c2ccc(Nc3ncc(C#N)c(Nc4ccccc4C(N)=O)n3)cc2)CC1 188 nM
NCC(NC(=O)c1ccc(-c2c[nH]c3ncccc23)s1)c1ccccc1 (stereo not given) 473 nM
CCN(CC)CCCOc1ccc(Nc2nccc(-c3c(-c4cccc(NC(=O)c5c(F)cccc5F)c4)nn4ccccc34)n2)cc1F 86 nM
COCCOc1ccc(Nc2nccc(-c3c(-c4cccc(NC(=O)c5c(F)cccc5F)c4)nn4ccccc34)n2)cc1Cl 853 nM
O=c1[nH]ccc2nc(N[C@@H]3CCNC3)nc(Nc3cc(Cl)cc(Cl)c3)c12 446 nM
O=C(NCC(c1ccc(C(F)(F)F)cc1)N1CCCC1)c1cc(-c2ccncc2)c(-c2cccc(O)c2)o1 (stereo not given) 178 nM
Cc1csc(-c2ncc(OC[C@@H](N)Cc3ccccc3)cc2-c2ccc3n[nH]c(C)c3c2)c1 420 nM
N#Cc1ccc(C(=O)Nc2cc(-c3cccc(O)c3)cc3[nH]ncc23)cc1 478 nM
CCn1c(-c2nonc2N)nc2c(-c3cccc(NC(=O)Nc4ccc(C#N)cc4)c3)ncc(OCCCN)c21 84 nM
CCn1c(-c2nonc2N)nc2c(-c3cc4ccccc4s3)ncc(C(=O)N3CCC(N)C3)c21 (stereo not given) 89 nM
CNC(=O)c1ccccc1Nc1nc(Nc2ccc(CCN3CCN(C)CC3)cc2)ncc1Cl 361 nM
CCn1c(-c2nonc2N)nc2c(-c3cccc(NC(=O)Nc4ccc5c(c4)CCC5)c3)ncc(OCCCN)c21 59 nM
O=C(Nc1cccc(-c2nn3ccccc3c2-c2ccnc(Nc3ccc(C(=O)N4CCOCC4)cc3)n2)c1)c1c(F)cccc1F 311 nM
CCS(=O)(=O)c1ccc(OC)c(Nc2nccc(-c3c(-c4cccc(NC(=O)c5c(F)cccc5F)c4)nn4ncccc34)n2)c1 201 nM
Cc1[nH]c(/C=C2\C(=O)Nc3ccc(S(=O)(=O)Cc4c(Cl)cccc4Cl)cc32)c(C)c1C(=O)N1CCC[C@@H]1CN1CCCC1 21 nM
NS(=O)(=O)c1cccc(Nc2nccc(-c3c(-c4cccc(NC(=O)c5c(F)cccc5F)c4)nn4ccccc34)n2)c1 51 nM
CC(=O)Nc1cccc(Nc2nccc(-c3c(-c4cccc(NC(=O)c5c(F)cccc5F)c4)nn4ncccc34)n2)c1 26 nM
CC(c1cccc(Nc2nccc(-c3c(-c4cccc(NC(=O)c5c(F)cccc5F)c4)nn4ccccc34)n2)c1)S(C)(=O)=O (stereo not given) 90 nM
CCn1c(-c2nonc2N)nc2c(-c3cccc(Cl)c3)ncc(OCCCNCc3cnc(C)nc3N)c21 145 nM
CCn1c(-c2nonc2N)nc2c(-c3cccc(NC(=O)Nc4ccc(C(F)(F)F)cc4)c3)ncc(OCCCN)c21 30 nM
NC[C@H](CC1CCCCC1)NC(=O)c1ccc(-c2ccnc3[nH]ccc23)s1 527 nM
Cc1cccc(Nc2nc(N[C@@H]3CCCNC3)nc3cc[nH]c(=O)c23)c1 76 nM
CN1CCN(c2ccc(Nc3nccc(-c4c(-c5cccc(NC(=O)c6c(F)cccc6F)c5)nn5ccccc45)n3)cc2)CC1 75 nM
O=C(Nc1cccc(-c2nn3ncccc3c2-c2ccnc(Nc3cccc(-c4cnco4)c3)n2)c1)c1c(F)cccc1F 145 nM
CCn1c(-c2nonc2N)nc2c(-c3ccccc3)ncc(OCCCNCCCN3CCOCC3)c21 38 nM
CCn1c(-c2nonc2N)nc2c(-c3cccc(NC(=O)Nc4cccc(C#N)c4)c3)ncc(OCCCN)c21 170 nM
CS(=O)(=O)Cc1ccc(Nc2nccc(-c3c(-c4cccc(NC(=O)C5CCCCC5)c4)nn4ncccc34)n2)cc1 67 nM
Cc1cc(Nc2ncc(C#N)c(Nc3ccccc3C(N)=O)n2)ccc1N1CCN(C)CC1 89 nM
O=C(Nc1ccccc1)Nc1cccc(-c2nn3c(OCCN4CCCC4)cccc3c2-c2ccncc2)c1 775 nM
CS(=O)(=O)Cc1ccc(Nc2nccc(-c3c(-c4cccc(C(=O)Nc5c(F)cccc5F)c4)nn4ccccc34)n2)cc1 65 nM
CC(c1cccc(Nc2nccc(-c3c(-c4cccc(NC(=O)c5c(F)cccc5F)c4)nn4ncccc34)n2)c1)S(C)(=O)=O (stereo not given) 24 nM
O=C(Nc1cccc(-c2nn3ccccc3c2-c2ccnc(Nc3ccc(-c4ccn[nH]4)cc3)n2)c1)c1c(F)cccc1F 307 nM
CCn1c(-c2nonc2N)nc2c(-c3cccc(NC(=O)NC45CC6CC(CC(C6)C4)C5)c3)ncc(OCCCN)c21 158 nM
Cn1cccc1C(=O)Nc1cccc(-c2nn3ccccc3c2-c2ccnc(Nc3ccc4c(c3)OCCO4)n2)c1 191 nM
CCn1c(-c2nonc2N)nc2c(-c3cccc(NC(=O)Nc4ccccc4Cl)c3)ncc(OCCCN)c21 138 nM
CCn1c(-c2nonc2N)nc2c(-c3cccc(NC(=O)Nc4ccccc4OC)c3)ncc(OCCCN)c21 706 nM
CC(C)(CN)c1cc(-c2ccc(Cl)c(O)c2)c(-c2ccncc2)o1 433 nM
CCN(CC)CCNC(=O)c1ccc(N=Cc2c(O)[nH]c3ccc(S(=O)(=O)Cc4c(Cl)cccc4Cl)cc23)cc1 73 nM
NS(=O)(=O)CCc1cccc(Nc2nccc(-c3c(-c4cccc(NC(=O)c5c(F)cccc5F)c4)nn4ccccc34)n2)c1 29 nM
CCn1c(-c2nonc2N)nc2c(-c3cccc(NC(=O)Nc4cccc(C(F)(F)F)c4)c3)ncc(OCCCN)c21 342 nM
CCn1c(-c2nonc2N)nc2c(-c3cccc(NC(=O)Nc4cccc(Cl)c4)c3)ncc(OCCCN)c21 81 nM
NCCCNc1nc(Nc2cccc(C(N)=O)c2)c2c(=O)[nH]ccc2n1 967 nM
NS(=O)(=O)c1cccc(N=Cc2c(O)[nH]c3ccc(S(=O)(=O)Cc4c(Cl)cccc4Cl)cc23)c1 116 nM
CS(=O)(=O)Cc1ccc(Nc2nccc(-c3c(-c4cccc(NC(=O)c5c(F)cccc5F)c4)nn4ccccc34)n2)cc1 52 nM
NS(=O)(=O)c1cccc(Nc2nc(N[C@@H]3CCNC3)nc3cc[nH]c(=O)c23)c1 135 nM
CCn1c(-c2nonc2N)nc2c(-c3cccc(Cl)c3)ncc(OCCCNCCc3cnc[nH]3)c21 46 nM
O=C(Nc1cccc(-c2nn3ncccc3c2-c2ccnc(Nc3ccccc3)n2)c1)c1c(F)cccc1F 352 nM
COc1cc(Nc2nccc(-c3c(-c4cccc(NC(=O)c5c(F)cccc5F)c4)nn4ccccc34)n2)cc(OC)c1OC 77 nM
Cc1[nH]nc2ccc(-c3cc(OC[C@@H](N)Cc4ccccc4)cnc3-c3cc4ccccc4s3)cc12 563 nM
CCn1c(-c2nonc2N)nc2c(-c3ccccc3)ncc(OCCCCNCCc3ncc[nH]3)c21 43 nM
